Test results as given in a compilation of properties of binary mixtures (doi:10.1016/j.molliq.2020.114841).

Assay: xn = mol fraction of the nth substance listed
Settings: 101.3 kPa

CS(C)=O + CCOCC[n+]1ccn(CCC#N)c1.O=S(=O)([N-]S(=O)(=O)C(F)(F)F)C(F)(F)F
x2 = 0
Settings	electrical conductivity [S/m]	viscosity [mPa·s]
293.15 K	0.0006	2.48
303.15 K	0.0009	2.025
313.15 K	0.0012	1.619
323.15 K	0.0015	1.433

CS(C)=O + COCCOCCn1cc[n+](CCC#N)c1.O=S(=O)([N-]S(=O)(=O)C(F)(F)F)C(F)(F)F
x2 = 0
Settings	electrical conductivity [S/m]	viscosity [mPa·s]
293.15 K	0.0006	2.479
303.15 K	0.0009	2.025
313.15 K	0.0012	1.619
323.15 K	0.0015	1.433

CCOCC[n+]1ccn(CCC#N)c1.O=S(=O)([N-]S(=O)(=O)C(F)(F)F)C(F)(F)F + CS(C)=O
Settings	electrical conductivity, 293.15 K [S/m]	electrical conductivity, 303.15 K [S/m]	electrical conductivity, 313.15 K [S/m]	electrical conductivity, 323.15 K [S/m]	viscosity, 293.15 K [mPa·s]	viscosity, 303.15 K [mPa·s]	viscosity, 313.15 K [mPa·s]	viscosity, 323.15 K [mPa·s]
x1 = 0.0989	0.0011	0.0013	0.0016	–	8.21	5.53	4.312	–
x1 = 0.1981	0.004	0.0048	0.0061	–	10.18	7.07	5.24	–
x1 = 0.2776	0.0096	0.0117	0.0152	0.0204	16.76	11.64	8.48	6.42
x1 = 0.3971	0.0179	0.0218	0.0282	–	25.7	17	12.01	–
x1 = 0.5029	0.0284	0.0351	0.0457	–	40.9	28	18.99	–
x1 = 0.597	–	0.0477	0.063	0.0866	–	38.6	26.33	18.01
x1 = 0.721	0.0472	–	0.0763	–	72.2	–	28.66	–
x1 = 0.798	–	0.0985	0.13	0.188	–	57.8	36.8	28.6
x1 = 0.89	–	0.0843	0.119	0.165	–	124.2	78.2	56.6
x1 = 1	0.057	0.0705	0.0957	0.14	401	235.6	146.2	105

COCCOCCn1cc[n+](CCC#N)c1.O=S(=O)([N-]S(=O)(=O)C(F)(F)F)C(F)(F)F + CS(C)=O
Settings	electrical conductivity, 293.15 K [S/m]	electrical conductivity, 303.15 K [S/m]	electrical conductivity, 313.15 K [S/m]	electrical conductivity, 323.15 K [S/m]	viscosity, 293.15 K [mPa·s]	viscosity, 303.15 K [mPa·s]	viscosity, 313.15 K [mPa·s]	viscosity, 323.15 K [mPa·s]
x1 = 0.0989	0.002	0.0023	0.0028	0.0034	6.1	4.244	3.145	2.453
x1 = 0.1981	–	0.0077	0.0094	–	–	5.65	4.14	–
x1 = 0.2776	0.0093	–	0.0144	0.0193	13.52	–	6.42	5
x1 = 0.3971	0.0202	0.0243	0.031	0.043	19.5	13.05	8.55	6.4
x1 = 0.5029	0.0321	–	0.0518	0.0698	39.8	–	16.92	12.64
x1 = 0.597	0.0411	0.051	0.0672	0.0919	53.9	33.04	22.38	16.15
x1 = 0.721	0.0589	0.0732	0.0977	0.134	64.3	36.5	24.89	17.98
x1 = 0.798	0.0885	0.111	–	–	90.8	49.7	–	–
x1 = 0.89	0.0746	–	–	0.175	145.2	–	–	37.5
x1 = 1	0.0654	0.0831	0.112	0.158	296	169	103.2	74.6
